Test results reported in US5384412A, “Saccharide intermediates in the formation of the calicheamicin and esperamicin oligosaccharides” (priority 1992, dated 1995).
Read-outs that look alike come from different tables or passages of the source.

Columns and labels:
[1] = tested on: 93 base-pair Sal I - Sph I double-stranded DNA fragment of pBR322; test: DNase I footprinting of oligosaccharides on labeled DNA fragment; format: binding; details: for protection against DNase I cleavage (footprinting): pre-incubated with DNA at 37° C. for 30 minutes, autoradiography; for DNA binding selectivity from footprinting: footprinting studies, O-methyl glycoside
Description: Footprinting studies the O-methyl glycosides of saccharide Compounds 167a, 100, its C-4 epimer (100a) and a similar compound lacking the iodo group in Ring C, 100b, shown below, were designed to probe these questions.
The oligosaccharides 167a, 100, 100a, and 100b were obtained by chemical synthesis following procedures similar to those discussed before. The 93 base-pair Sal I - Sph I double-stranded DNA fragment of pBR322 was obtained enzymatically and was [5'-^32 P]-labeled on one strand. pBR322 DNA was cleaved at the unique Sal I site, dephosphorylated using calf intestine phosphatase, 5'-^32 P]-phosphorylated using T4 polynucleotide kinase and [g-^32 P ATP (4.5 ^m Ci/pmol), and cleaved again at the unique Sph I site. These precursors generated a 93 base-pair double-stranded fragment, [5'-^32 P]-labeled at the Sal I end, which was purified by gel electrophoresis in a nondenaturing 10 percent polyacrylamide gel and subsequent column chromatography on Sephadex G-25. The oligosaccharides were pre-incubated with the DNA fragment at 37° C. for 30 minutes and DNase I was added to cleave the DNA and generate footprinting patterns by autoradiography.
The degree of protection against DNase I digestion offered by both the natural and unnatural stereoisomers was determined by comparing the amount of radioactivity in adjacent lanes along the electrophoresis gel. The protected regions coincided only roughly with calicheamicin γ1^I recognition sequences [(a) Zein et al., Science, 240:1198 (1988); (b) Zein et al., Science, 244:697 (1989); (c) Ding et al., J. Am. Chem. Soc., 113:6617 (1991)], Schreiber [Hawley et al., Proc. Natl. Acad. Sci. U.S.A., 86:1105 (1989)] and observed calicheamicin γ1^I cleavage sites.

duplex DNA = details: cited from earlier work
DNA = details: Zein et al., Science, 244:697 (1989), cited from earlier work

Compound	protection against DNase I cleavage (footprinting) [1]	sequence specificity of DNA cleaving (DNA)	also measured
CCN[C@H]1CO[C@@H](O[C@H]2[C@H](OC)O[C@H](C)[C@H](NO[C@H]3C[C@H](O)[C@H](SC(=O)c4c(C)c(I)c(O[C@@H]5O[C@@H](C)[C@H](O)[C@@H](OC)[C@H]5O)c(OC)c4OC)[C@@H](C)O3)[C@@H]2O)C[C@@H]1OC [Compound 100a]	no protection at the same concentrations	–	–
CCN[C@H]1CO[C@@H](O[C@H]2[C@H](OC)O[C@H](C)[C@@H](NO[C@H]3C[C@H](O)[C@H](SC(=O)c4c(C)cc(O[C@@H]5O[C@@H](C)[C@H](O)[C@@H](OC)[C@H]5O)c(OC)c4OC)[C@@H](C)O3)[C@@H]2O)C[C@@H]1OC [Compound 100b]	lack of protection under the same conditions	–	–
CCN[C@H]1CO[C@@H](O[C@H]2[C@H](OC)O[C@H](C)[C@@H](NO[C@H]3C[C@H](O)[C@H](SC(=O)c4c(C)c(I)c(O[C@@H]5O[C@@H](C)[C@H](O)[C@@H](OC)[C@H]5O)c(OC)c4OC)[C@@H](C)O3)[C@@H]2O)C[C@@H]1OC [Compound 100]	concentration-dependent protection, presumably due to binding, in the region of three calicheamicin γ1^I binding sites: CTCT, TCCT and AGGA	–	DNA binding selectivity from footprinting [1]: selective binding of oligosaccharide Compound 100 with specific base sequences of DNA; DNA binding selectivity from footprinting ([1]; listed as calicheamicin oligosaccharide glycoside): binds specifically to DNA, the preferred saccharide binding sites do not coincide precisely with those observed for intact calicheamicin; interaction with duplex DNA (duplex DNA; previous studies by the Ellestad, Schreiber, Kahne and Danishefsky groups): selective interactions of the calicheamicin γ1^I oligosaccharide with duplex DNA along specific sequences within the minor groove
CCN[C@H]1CO[C@@H](O[C@H]2[C@H](O[C@H]3C#CC=CC#C[C@@]4(O)CC(=O)C(NC(=O)OC)=C3/C4=C\CSSSC)O[C@H](C)[C@@H](NO[C@H]3C[C@H](O)[C@H](SC(=O)c4c(C)c(I)c(O[C@@H]5O[C@@H](C)[C@H](O)[C@@H](OC)[C@H]5O)c(OC)c4OC)[C@@H](C)O3)[C@@H]2O)C[C@@H]1OC (stereo in doubt) [calicheamicin γ1^I, reference compound]	–	double DNA strand cuts at specific sequences	DNA binding site (duplex DNA; double stranded DNA minor groove): anchors itself on the 5' side of a TCCT sequence
esperamicin	–	no strong sequence specificity in DNA cleaving	sequence specificity of DNA cleaving (DNA; listed as Esperamicins): less sequence specific
